From ChEMBL document CHEMBL1201862, “PubChem BioAssay data set” (2004)
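Exposure lasted 48 hours, with cells grown in 96-well plates and compounds tested at five concentrations. GI50 = concentration required for 50% inhibition of growth.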 Active and inactive are the calls of the source. Cut-off read from the data, not from the text of the source: active = GI50 up to about 1.1 µM and inactive = higher.

Tests used:
Assay in all cases: NCI anticancer screen, dose series, 48 h
SK-OV-3 = system: SK-OV-3
MOLT-4 = system: MOLT-4
SR = system: SR
CAKI-1 = system: CAKI-1
COLO 205 = system: COLO 205
T47D = system: T47D
SF-539 = system: SF-539
NCI-H460 = system: NCI-H460
SK-MEL-5 = system: SK-MEL-5
786-0 = system: 786-0
MDA-N = system: MDA-N
UACC-62 = system: UACC-62
M14 = system: M14
TK-10 = system: TK-10
HCT-15 = system: HCT-15
RXF 393 = system: RXF 393
KM12 = system: KM12
EKVX = system: EKVX
UACC-257 = system: UACC-257
SN12C = system: SN12C
SW-620 = system: SW-620
CCRF-CEM = system: CCRF-CEM
SK-MEL-2 = system: SK-MEL-2
HCT-116 = system: HCT-116
K562 = system: K562
BT-549 = system: BT-549
SF-268 = system: SF-268
NCI-H226 = system: NCI-H226
OVCAR-8 = system: OVCAR-8
SNB-19 = system: SNB-19
MDA-MB-435 = system: MDA-MB-435
HOP-92 = system: HOP-92
A498 = system: A498
HL-60 = system: HL-60
PC-3 = system: PC-3
SNB-75 = system: SNB-75
U-251 = system: U-251
SK-MEL-28 = system: SK-MEL-28
IGROV-1 = system: IGROV-1
Malme-3M = system: Malme-3M
A549 = system: A549
NCI/ADR-RES = system: NCI/ADR-RES
SF-295 = system: SF-295
DU-145 = system: DU-145
ACHN = system: ACHN
OVCAR-4 = system: OVCAR-4
UO-31 = system: UO-31
OVCAR-5 = system: OVCAR-5
RPMI-8226 = system: RPMI-8226
MDA-MB-231 = system: MDA-MB-231
OVCAR-3 = system: OVCAR-3
Hs-578T = system: Hs-578T
NCI-H23 = system: NCI-H23
MCF7 = system: MCF7
HOP-62 = system: HOP-62
HCC 2998 = system: HCC 2998
NCI-H522 = system: NCI-H522
HT-29 = system: HT-29
LOX IMVI = system: LOX IMVI

For CC(=O)NC1=CC(=O)c2cc(C)cc(O)c2C1=O, the GI50 (SK-OV-3) was > 63.2 µM (inactive), the GI50 (MOLT-4) was 4.85 µM (inactive) and the GI50 (SR) was 9.1 µM (inactive). For the same compound, the GI50 (CAKI-1) was 17.8 µM (inactive), the GI50 (COLO 205) was 5.5 µM (inactive) and the GI50 (T47D) was 14.5 µM (inactive). For the same compound, the GI50 (SF-539) was 6.84 µM (inactive), the GI50 (NCI-H460) was 14.9 µM (inactive) and the GI50 (SK-MEL-5) was 1.14 µM (inactive). For the same compound, the GI50 (786-0) was 13.7 µM (inactive), the GI50 (MDA-N) was 1.53 µM (inactive) and the GI50 (UACC-62) was 2.02 µM (inactive). For the same compound, the GI50 (M14) was 1.75 µM (inactive), the GI50 (TK-10) was 21 µM (inactive) and the GI50 (HCT-15) was 2.88 µM. The GI50 (RXF 393) was 12.5 µM (inactive), the GI50 (KM12) was 9.84 µM (inactive) and the GI50 (EKVX) was 17.2 µM (inactive). The GI50 (UACC-257) was 1.85 µM (inactive), the GI50 (SN12C) was 5.09 µM (inactive) and the GI50 (SW-620) was 3.41 µM (inactive). For the same compound, the GI50 (CCRF-CEM) was 4.47 µM (inactive), the GI50 (SK-MEL-2) was 4.72 µM (inactive) and the GI50 (HCT-116) was 5.51 µM (inactive). For the same compound, the GI50 (K562) was 3.74 µM (inactive), the GI50 (BT-549) was 7.06 µM (inactive) and the GI50 (SF-268) was 9.33 µM (inactive). For the same compound, the GI50 (NCI-H226) was 19.8 µM (inactive), the GI50 (OVCAR-8) was 2.44 µM (inactive) and the GI50 (SNB-19) was 28.1 µM (inactive). The GI50 (MDA-MB-435) was 0.721 µM (active), the GI50 (HOP-92) was 8.73 µM (inactive) and the GI50 (A498) was 11 µM (inactive). The GI50 (HL-60) was 1.88 µM (inactive), the GI50 (PC-3) was 12.5 µM (inactive) and the GI50 (SNB-75) was 18.7 µM (inactive). For the same compound, the GI50 (U-251) was 9.33 µM (inactive), the GI50 (SK-MEL-28) was 0.822 µM (active) and the GI50 (IGROV-1) was 11.8 µM (inactive). The GI50 (Malme-3M) was 1.9 µM (inactive), the GI50 (A549) was 7.5 µM (inactive) and the GI50 (NCI/ADR-RES) was 5.77 µM (inactive). For the same compound, the GI50 (SF-295) was 19.2 µM (inactive), the GI50 (DU-145) was 5.82 µM (inactive) and the GI50 (ACHN) was 9.66 µM (inactive). The GI50 (OVCAR-4) was 8.49 µM (inactive), the GI50 (UO-31) was 7.59 µM (inactive) and the GI50 (OVCAR-5) was 12.5 µM (inactive). For the same compound, the GI50 (RPMI-8226) was 2.92 µM (inactive), the GI50 (MDA-MB-231) was 7.19 µM (inactive) and the GI50 (OVCAR-3) was 2.65 µM (inactive). For the same compound, the GI50 (Hs-578T) was 31.8 µM (inactive), the GI50 (NCI-H23) was 1.72 µM (inactive) and the GI50 (MCF7) was 2.39 µM (inactive). The GI50 (HOP-62) was 17.9 µM (inactive), the GI50 (HCC 2998) was 2.03 µM (inactive) and the GI50 (NCI-H522) was 8.83 µM (inactive). For the same compound, the GI50 (HT-29) was 16.9 µM (inactive) and the GI50 (LOX IMVI) was 1.53 µM (inactive).
